The values below come from paper PMC11582173, “Synthesis, cytotoxicity, anti-inflammatory, anti-metastatic and anti-oxidant activities of novel chalcones incorporating 2-phenoxy-N-arylacetamide and thiophene moieties: induction of apoptosis in MCF7 and HEP2 cells” (Naunyn-Schmiedeberg's Archives of Pharmacology, 2024).

Several values for one entry are separate records, joined by “and”; a condition that tells them apart may be missing. Equal values may be shown once.

The assay concerns Bcl2. In words: ELISA, Bcl2 concentration. The class given is cell-based, human. As for the experimental part: The concentrations of matrix metalloproteinase-2 (MMP2), matrix metalloproteinase-9 (MMP9), Bcl2, BAX, P53, Malondialdehyde (MDA), Glutathione (GSH), caspase 8, caspase 9 and IL-6 were measured quantitatively in 5c treated MCF7 and HEP2 cells using ELISA (Enzyme-Linked Immunosorbent Assay) (Table 4). Gelatinases are a collective word for MMP-2 and MMP-9, where MMP-2 is gelatinase-A and MMP-9 is gelatinase-B. Solid tumor invasion, metastasis, and angiogenesis have long been linked to gelatinases (Das et al. [2021]). […] Bcl2 is a crucial protein that targets apoptosis inhibition. It is regarded as a predictive biomarker or therapeutic target in the diagnosis of cancer due to its broad expression in a variety of cancers (Porter et al. [2009]). […] The pro-apoptotic protein BAX permeabilizes the mitochondrial outer membrane by changing from a cytosolic monomer to a hazardous oligomer triggering the apoptosis process (Fulda and Debatin [2006]). […] P53 transcription factor performs an essential tumor suppressor role by coordinating a wide range of physiological responses, including DNA repair, cell cycle arrest, cellular senescence, cell death, cell differentiation, and metabolism (Liebl and Hofmann [2021]). It was activated in MCF7 and HEP2-treated cells with values (4.28 and 3.109 ng/mL), respectively, compared to their controls (3.44 and 2.06 ng/mL). […]
Background: In an ELISA, binding on a coated surface is turned into a signal by an enzyme label.

Take `COc1ccc(NC(=O)COc2ccc(C=CC(=O)c3cccs3)cc2)cc1` [Compound 5c, N-(4-Methoxyphenyl)-2-(4-(3-oxo-3-(thiophen-2-yl)prop-1-en-1-yl)phenoxy)acetamide]: the Bcl2 concentration (5c treated HEP2 cells, untreated 2299.4±170.35) was 1809.34 pg/mL and 1809.34 ± 27.45 pg/mL; the Bcl2 concentration (5c treated MCF7 cells, untreated 2479.8±17.08) was 2089.96 pg/mL and 2089.96 ± 17.97 pg/mL.
